Experimental findings from the Kinase Knowledgebase extract (Sharma et al. 2016) are described below.

By IC50 is commonly meant the point on the concentration scale where inhibition reaches its midpoint. The low end stands for higher potency, the high end for lower potency.

In this experiment the target is EGFR (human) (UniProt P00533).
Chain of EGFR (human) (P00533 whole entry, looked up): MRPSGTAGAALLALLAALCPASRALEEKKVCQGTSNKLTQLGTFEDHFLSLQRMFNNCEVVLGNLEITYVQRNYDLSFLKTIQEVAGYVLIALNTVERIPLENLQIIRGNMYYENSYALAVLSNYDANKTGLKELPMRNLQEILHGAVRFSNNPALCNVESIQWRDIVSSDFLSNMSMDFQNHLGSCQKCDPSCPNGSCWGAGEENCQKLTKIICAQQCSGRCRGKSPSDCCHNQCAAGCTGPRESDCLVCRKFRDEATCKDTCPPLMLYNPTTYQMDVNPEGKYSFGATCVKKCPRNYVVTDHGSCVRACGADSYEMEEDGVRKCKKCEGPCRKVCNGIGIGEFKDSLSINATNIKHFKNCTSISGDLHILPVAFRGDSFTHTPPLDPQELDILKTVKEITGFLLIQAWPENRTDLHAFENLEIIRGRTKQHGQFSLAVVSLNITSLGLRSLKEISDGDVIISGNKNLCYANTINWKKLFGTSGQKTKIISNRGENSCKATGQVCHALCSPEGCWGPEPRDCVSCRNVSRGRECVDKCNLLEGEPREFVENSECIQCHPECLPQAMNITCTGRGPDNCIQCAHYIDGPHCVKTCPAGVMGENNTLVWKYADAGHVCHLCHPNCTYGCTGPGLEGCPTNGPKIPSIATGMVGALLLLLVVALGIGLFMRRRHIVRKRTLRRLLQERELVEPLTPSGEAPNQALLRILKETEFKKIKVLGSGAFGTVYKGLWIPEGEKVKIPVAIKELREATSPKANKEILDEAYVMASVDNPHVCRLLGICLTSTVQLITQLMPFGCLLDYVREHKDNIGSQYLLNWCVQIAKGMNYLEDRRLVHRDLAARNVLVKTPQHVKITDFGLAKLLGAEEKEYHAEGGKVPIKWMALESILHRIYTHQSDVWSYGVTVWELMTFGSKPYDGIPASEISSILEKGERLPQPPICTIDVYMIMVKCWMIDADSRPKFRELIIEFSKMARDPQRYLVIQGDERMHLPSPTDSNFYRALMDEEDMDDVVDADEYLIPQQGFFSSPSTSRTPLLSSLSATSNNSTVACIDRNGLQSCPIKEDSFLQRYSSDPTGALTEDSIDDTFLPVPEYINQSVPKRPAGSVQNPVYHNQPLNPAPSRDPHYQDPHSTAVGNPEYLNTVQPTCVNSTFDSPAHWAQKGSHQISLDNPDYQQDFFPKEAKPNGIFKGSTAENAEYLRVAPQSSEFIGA
`Nc1ncc(-c2cccc(CN[C@@H]3c4ccccc4C[C@@H]3O)c2)nc1C(=O)N[C@H]1CCCNC1` had an IC50 of 1 to 10 µM.

On to `Nc1ncc(-c2cccc(NC(=O)c3cnc4ccccc4c3)c2)nc1C(=O)N[C@H]1CCCNC1`, for which the IC50 lay within 1 to 10 µM.

On to `CN(C)c1ccc(CNC(=O)c2cccc(-c3cnc(N)c(C(=O)N[C@H]4CCCNC4)n3)c2)cc1`, for which the IC50 is at least 10 µM.

For `Nc1ncc(-c2cccc(CNC(=O)Nc3ccc(-c4ccccc4)cc3)c2)nc1C(=O)N[C@H]1CCCNC1`, the IC50 was at least 10 µM.

`CCNCCOc1cccc(-c2cnc(N)c(C(=O)N[C@H]3CCCNC3)n2)c1` gave an IC50 of 1 to 10 µM.

Take `Nc1ncc(-c2cccc(CNC(=O)c3ccc(F)cc3)c2)nc1C(=O)N[C@H]1CCCNC1`: the IC50 lay in the range of 1 to 10 µM.

Regarding `Nc1ncc(-c2cccc(C(=O)NCc3ccc(Cl)cc3F)c2)nc1C(=O)N[C@H]1CCCNC1`, the IC50 is at least 10 µM.

The molecule `Nc1ncc(-c2cccc(CNC(=O)c3cccs3)c2)nc1C(=O)N[C@H]1CCCNC1` showed an IC50 of 1 to 10 µM.

Molecule `COc1ccc(CNC(=O)c2cccc(-c3cnc(N)c(C(=O)N[C@H]4CCCNC4)n3)c2)cc1` came in with an IC50 of at least 10 µM.

`Nc1ncc(-c2cccc(C(=O)NCc3ccc(Cl)cc3)c2)nc1C(=O)N[C@H]1CCCNC1` yielded a half-maximal inhibitory concentration (IC50) of at least 10 µM.

The molecule `Nc1ncc(-c2cccc(NC(=O)Cc3ccc(F)cc3F)c2)nc1C(=O)N[C@H]1CCCNC1` returned an IC50 of 0.05 to 1 µM.

In the case of `Nc1ncc(-c2cccc(C(=O)NCc3ccc(OC(F)(F)F)cc3)c2)nc1C(=O)N[C@H]1CCCNC1`, the IC50 was at least 10 µM.

On to `Cc1ccc(CNC(=O)c2cccc(-c3cnc(N)c(C(=O)N[C@H]4CCCNC4)n3)c2)c(F)c1F`, for which the IC50 was at least 10 µM.
